Data from ChEMBL document CHEMBL1133193, “4-[3-(5,6,7,8-Tetrahydro-5,5,8,8-tetramethyl-2-naphthalenyl)phenyl]benzoic acid and heterocyclic-bridged analogues are novel retinoic acid receptor subtype and retinoid X receptor alpha agonists” (Bioorg Med Chem Lett, 2000).

Legend:
[1] = molecular target: T1, Retinoic acid receptor gamma (Homo sapiens, UniProt P13631); test: Transcriptional activation in CV-1 cells expressing retinoic acid gamma receptor; format: cell-based, Cercopithecidae
T1 sequence (P13631 whole entry): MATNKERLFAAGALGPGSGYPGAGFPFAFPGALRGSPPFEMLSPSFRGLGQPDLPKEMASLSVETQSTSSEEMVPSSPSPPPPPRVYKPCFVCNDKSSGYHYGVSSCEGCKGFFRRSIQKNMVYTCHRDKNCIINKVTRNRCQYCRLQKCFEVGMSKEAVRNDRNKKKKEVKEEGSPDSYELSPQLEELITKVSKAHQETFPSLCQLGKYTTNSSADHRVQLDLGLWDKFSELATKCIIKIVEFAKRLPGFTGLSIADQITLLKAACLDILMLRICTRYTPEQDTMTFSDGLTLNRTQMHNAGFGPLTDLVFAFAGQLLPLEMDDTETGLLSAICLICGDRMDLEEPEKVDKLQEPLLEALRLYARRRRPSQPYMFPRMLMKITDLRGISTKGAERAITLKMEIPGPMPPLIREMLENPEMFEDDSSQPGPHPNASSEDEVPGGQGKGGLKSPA

[2] = molecular target: T2, Retinoic acid receptor RXR-alpha (Homo sapiens, UniProt P19793); test: Transcriptional activation in CV-1 cells expressing Retinoic acid receptor RXR-alpha; format: cell-based, Cercopithecidae
T2 sequence (P19793 whole entry): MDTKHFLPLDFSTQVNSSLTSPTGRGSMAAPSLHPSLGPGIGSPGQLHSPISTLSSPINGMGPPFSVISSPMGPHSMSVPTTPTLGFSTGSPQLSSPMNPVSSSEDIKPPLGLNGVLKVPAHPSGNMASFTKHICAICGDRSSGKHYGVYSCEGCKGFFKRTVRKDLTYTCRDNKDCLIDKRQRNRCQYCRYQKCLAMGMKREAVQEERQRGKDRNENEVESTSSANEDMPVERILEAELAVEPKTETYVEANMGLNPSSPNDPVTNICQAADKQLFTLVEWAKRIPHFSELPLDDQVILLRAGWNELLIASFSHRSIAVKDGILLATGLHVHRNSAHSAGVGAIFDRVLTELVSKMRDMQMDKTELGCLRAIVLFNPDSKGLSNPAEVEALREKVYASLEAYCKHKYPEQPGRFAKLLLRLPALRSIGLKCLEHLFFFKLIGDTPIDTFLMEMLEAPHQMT

[3] = molecular target: T3, Retinoic acid receptor RXR-alpha (Homo sapiens) (UniProt P19793); test: Percent activation of Retinoic acid receptor RXR-alpha at 1 uM relative to 1 uM 9-cis-retinoic acid
T3 sequence (whole entry): T2 sequence (P19793 whole entry)

[4] = molecular target: T4, Retinoic acid receptor beta (Homo sapiens, UniProt P10826); test: Transcriptional activation in CV-1 cells expressing Retinoic acid receptor beta; format: cell-based, Cercopithecidae
T4 sequence (P10826 whole entry): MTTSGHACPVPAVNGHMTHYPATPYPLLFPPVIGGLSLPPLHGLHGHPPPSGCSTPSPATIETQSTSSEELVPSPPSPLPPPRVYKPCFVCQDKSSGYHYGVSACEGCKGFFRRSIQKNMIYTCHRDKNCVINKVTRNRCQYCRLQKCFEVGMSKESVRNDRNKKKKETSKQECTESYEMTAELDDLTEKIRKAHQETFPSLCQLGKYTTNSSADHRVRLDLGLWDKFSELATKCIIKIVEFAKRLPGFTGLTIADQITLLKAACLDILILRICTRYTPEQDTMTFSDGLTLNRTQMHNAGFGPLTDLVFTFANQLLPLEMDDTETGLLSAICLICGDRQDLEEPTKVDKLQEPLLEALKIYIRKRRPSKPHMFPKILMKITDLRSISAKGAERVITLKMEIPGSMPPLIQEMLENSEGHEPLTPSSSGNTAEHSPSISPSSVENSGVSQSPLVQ

[5] = molecular target: T5, Retinoic acid receptor alpha (Homo sapiens, UniProt P10276); test: Transcriptional activation in CV-1 cells expressing Retinoic acid receptor alpha; format: cell-based, Cercopithecidae
T5 sequence (P10276 whole entry): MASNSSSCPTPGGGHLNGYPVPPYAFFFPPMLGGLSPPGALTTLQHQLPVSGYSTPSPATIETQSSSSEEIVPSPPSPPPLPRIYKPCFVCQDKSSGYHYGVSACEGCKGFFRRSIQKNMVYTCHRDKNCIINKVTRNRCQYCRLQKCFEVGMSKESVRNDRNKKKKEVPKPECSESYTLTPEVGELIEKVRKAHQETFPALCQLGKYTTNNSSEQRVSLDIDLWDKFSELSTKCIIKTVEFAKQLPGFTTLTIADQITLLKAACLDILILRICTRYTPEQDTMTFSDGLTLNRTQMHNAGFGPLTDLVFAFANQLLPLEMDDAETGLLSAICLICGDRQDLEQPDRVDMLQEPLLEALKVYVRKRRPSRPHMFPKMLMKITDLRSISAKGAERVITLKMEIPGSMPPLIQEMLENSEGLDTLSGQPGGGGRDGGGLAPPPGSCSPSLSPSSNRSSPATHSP

T47D = test: Inhibition of T47D retinoid sensitive breast carcinoma cell proliferation at 1 uM; format: functional; settings: Homo sapiens
ZR-75-1 = test: Inhibition of ZR-75-1 retinoid sensitive breast carcinoma cell proliferation at 1 uM; format: functional; settings: Homo sapiens
MDA-MB-231 = test: Growth of MDA-MB-231 retinoid resistant breast carcinoma cells at 1 uM; settings: Homo sapiens

## Cc1ccc(-c2ccc(C(=O)O)cc2)cc1-c1cc2c(cc1C)C(C)(C)CCC2(C)C
[1]
  AC50: 1 nM
[2]
  AC50: 430 nM
[3]
  Activation: 70%
[4]
  AC50: 10 nM
[5]
  AC50: > 1000 nM

## CC1(C)CCC(C)(C)c2cc(-c3ccc4cc(C(=O)O)ccc4c3)ccc21
[1]
  AC50: 68 nM
[2]
  AC50: > 1000 nM
[3]
  Activation: 0%
[4]
  AC50: 52 nM
[5]
  AC50: > 1000 nM

## CC1=C(/C=C/C(C)=C/C=C/C(C)=C/C(=O)O)C(C)(C)CCC1 [TRETINOIN]
T47D
  inhibition at 1 µM: 39%
ZR-75-1
  inhibition at 1 µM: 70%
MDA-MB-231
  growth relative to control at 1 µM: 94%

## CC1(C)CCC(C)(C)c2cc(-c3cccc(-c4ccc(C(=O)O)cc4)n3)ccc21
[1]
  AC50: > 1000 nM
[2]
  AC50: > 1000 nM
[3]
  Activation: 17%
[4]
  AC50: 140 nM
[5]
  AC50: 370 nM

## C/C(=C\c1ccc(C(=O)O)cc1)c1ccc2c(c1)C(C)(C)CCC2(C)C
[2]
  AC50: > 1000 nM
[3]
  Activation: 0%

## CC1=C(/C=C/C(C)=C\C=C\C(C)=C\C(=O)O)C(C)(C)CCC1 [ALITRETINOIN]
T47D
  inhibition at 1 µM: 35%
ZR-75-1
  inhibition at 1 µM: 59%
MDA-MB-231
  growth relative to control at 1 µM: 69%

## CC1(C)CCC(C)(C)c2cc(-c3cccc(-c4ccc(C(=O)O)cc4)c3)ccc21
[1]
  AC50: 2.3 nM
[2]
  AC50: > 1000 nM
[3]
  Activation: 27%
[4]
  AC50: 4.3 nM
[5]
  AC50: 1 nM
T47D
  inhibition at 1 µM: 32%
ZR-75-1
  inhibition at 1 µM: 47%
MDA-MB-231
  growth relative to control at 1 µM: 80%

## Cc1ccc(-c2ccc(C(=O)O)cc2)cc1-c1ccc2c(c1)C(C)(C)CCC2(C)C
[1]
  AC50: < 1 nM
[2]
  AC50: 135 nM
[3]
  Activation: 85%
[4]
  AC50: < 1 nM
[5]
  AC50: 79 nM
T47D
  inhibition at 1 µM: 35%
ZR-75-1
  inhibition at 1 µM: 49%
MDA-MB-231
  growth relative to control at 1 µM: 75%

## Cc1cc2c(cc1-c1cccc(-c3ccc(C(=O)O)cc3)n1)C(C)(C)CCC2(C)C
[1]
  AC50: 1000 nM
[2]
  AC50: > 1000 nM
[3]
  Activation: 0%
[4]
  AC50: > 1000 nM
[5]
  AC50: > 1000 nM

## Cc1cc2c(cc1-c1ncc(-c3ccc(C(=O)O)cc3)s1)C(C)(C)CCC2(C)C
[1]
  AC50: 220 nM
[2]
  AC50: > 1000 nM
[3]
  Activation: 8%
[4]
  AC50: 740 nM
[5]
  AC50: > 1000 nM
